Measured values published in PubChem BioAssay (NCI).
“And” between values parts separate entries of the source, which are not always exact repeats. Equal entries are not always repeated.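 48-hour exposure; five concentrations; linearly interpolated endpoints. GI50: concentration for 50% inhibition of growth. Definition used: TGI = concentration required for complete inhibition of growth.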

Legend:
Experiment in all cases: NCI-60 cell line screen, 48 h
[1] = system: 786-0 renal
[2] = system: A498 renal
[3] = system: A549 NSCLC
[4] = system: ACHN renal
[5] = system: BT-549 breast
[6] = system: CAKI-1 renal
[7] = system: CCRF-CEM leukemia
[8] = system: COLO 205 colon
[9] = system: DU-145 prostate
[10] = system: EKVX NSCLC
[11] = system: HCC-2998 colon
[12] = system: HCT-116 colon
[13] = system: HCT-15 colon
[14] = system: HL-60(TB) leukemia
[15] = system: HOP-62 NSCLC
[16] = system: HOP-92 NSCLC
[17] = system: HS 578T breast
[18] = system: HT29 colon
[19] = system: IGROV1 ovarian
[20] = system: KM12 colon
[21] = system: LOX IMVI melanoma
[22] = system: M14 melanoma
[23] = system: MALME-3M melanoma
[24] = system: MCF7 breast
[25] = system: MDA-MB-231 breast
[26] = system: MDA-MB-435
[27] = system: MDA-N
[28] = system: MOLT-4 leukemia
[29] = system: NCI-H226 lung
[30] = system: NCI-H23 lung
[31] = system: NCI-H460 lung
[32] = system: NCI-H522 lung
[33] = system: NCI/ADR-RES ovarian
[34] = system: OVCAR-3 ovarian
[35] = system: OVCAR-4 ovarian
[36] = system: OVCAR-5 ovarian
[37] = system: OVCAR-8 ovarian
[38] = system: PC-3 prostate
[39] = system: RPMI-8226 leukemia
[40] = system: RXF 393 renal
[41] = system: SF-268 CNS
[42] = system: SF-295 CNS
[43] = system: SF-539 CNS
[44] = system: SK-MEL-2 melanoma
[45] = system: SK-MEL-28 melanoma
[46] = system: SK-MEL-5 melanoma
[47] = system: SK-OV-3 ovarian
[48] = system: SN12C renal
[49] = system: SNB-19 CNS
[50] = system: SR leukemia
[51] = system: SW-620 colon
[52] = system: T-47D breast
[53] = system: TK-10 renal
[54] = system: U251 CNS
[55] = system: UACC-257 melanoma
[56] = system: UACC-62 melanoma
[57] = system: UO-31 renal

**Q.** `COC(=O)C1=COC(C)C2CN3CCc4c([nH]c5ccccc45)C3CC12` (stereo unspecified) was tested. Which GI50 [1] did it give?
**A.** 18.8 µM and 54.8 µM

**Q.** And the TGI [1]?
**A.** 40.2 µM and > 100 µM

**Q.** What about the GI50 [2] of the same compound?
**A.** 21.1 µM and 74.9 µM

**Q.** What about the TGI [2] of the same compound?
**A.** 49.7 µM and > 100 µM

**Q.** What about the GI50 [3] of the same compound?
**A.** 37.6 µM and > 100 µM

**Q.** What about the TGI [3] of the same compound?
**A.** > 100 µM

**Q.** And the GI50 [4]?
**A.** 32.1 µM and > 100 µM

**Q.** What about the TGI [4] of the same compound?
**A.** > 100 µM

**Q.** And the GI50 [5]?
**A.** 28 µM and > 100 µM

**Q.** And the TGI [5]?
**A.** > 100 µM

**Q.** And the GI50 [6]?
**A.** 21.2 µM and > 100 µM

**Q.** And the TGI [6]?
**A.** 85.6 µM and > 100 µM

**Q.** What about the GI50 [7] of the same compound?
**A.** 20.1 µM and 50.5 µM

**Q.** What about the TGI [7] of the same compound?
**A.** 58.5 µM and > 100 µM

**Q.** And the GI50 [8]?
**A.** 18.2 µM and > 100 µM

**Q.** What about the TGI [8] of the same compound?
**A.** 36.4 µM and > 100 µM

**Q.** What about the GI50 [9] of the same compound?
**A.** 33.7 µM and > 100 µM

**Q.** And the TGI [9]?
**A.** > 100 µM

**Q.** What about the GI50 [10] of the same compound?
**A.** 17.8 µM and > 100 µM

**Q.** What about the TGI [10] of the same compound?
**A.** 80.9 µM and > 100 µM

**Q.** What about the GI50 [11] of the same compound?
**A.** 20.6 µM and > 100 µM

**Q.** What about the TGI [11] of the same compound?
**A.** 44.7 µM and > 100 µM

**Q.** And the GI50 [12]?
**A.** 19 µM and > 100 µM

**Q.** And the TGI [12]?
**A.** 45.4 µM and > 100 µM

**Q.** What about the GI50 [13] of the same compound?
**A.** 30 µM and > 100 µM

**Q.** And the TGI [13]?
**A.** > 100 µM

**Q.** What about the GI50 [14] of the same compound?
**A.** 17.5 µM and 46.1 µM

**Q.** And the TGI [14]?
**A.** 41.7 µM and > 100 µM

**Q.** What about the TGI [15] of the same compound?
**A.** > 100 µM

**Q.** And the GI50 [16]?
**A.** 18.3 µM and > 100 µM

**Q.** What about the TGI [16] of the same compound?
**A.** 77.4 µM and > 100 µM

**Q.** What about the TGI [17] of the same compound?
**A.** 65.8 µM and > 100 µM

**Q.** And the GI50 [18]?
**A.** 13.8 µM and > 100 µM

**Q.** What about the TGI [18] of the same compound?
**A.** 27.2 µM and > 100 µM

**Q.** What about the GI50 [19] of the same compound?
**A.** 22.1 µM and > 100 µM

**Q.** And the TGI [19]?
**A.** 80.2 µM and > 100 µM

**Q.** And the GI50 [20]?
**A.** 17.8 µM and > 100 µM

**Q.** What about the TGI [20] of the same compound?
**A.** 42.6 µM and > 100 µM

**Q.** What about the GI50 [21] of the same compound?
**A.** 18.5 µM and > 100 µM

**Q.** And the TGI [21]?
**A.** 45.5 µM and > 100 µM

**Q.** What about the GI50 [22] of the same compound?
**A.** 38.4 µM and > 100 µM

**Q.** What about the TGI [22] of the same compound?
**A.** > 100 µM

**Q.** What about the GI50 [23] of the same compound?
**A.** 14.4 µM and 49.5 µM

**Q.** And the TGI [23]?
**A.** 45.5 µM and > 100 µM

**Q.** And the GI50 [24]?
**A.** 32.1 µM and > 100 µM

**Q.** And the TGI [24]?
**A.** > 100 µM

**Q.** And the GI50 [25]?
**A.** 21.2 µM and > 100 µM

**Q.** And the TGI [25]?
**A.** 65.3 µM and > 100 µM

**Q.** What about the TGI [26] of the same compound?
**A.** > 100 µM

**Q.** What about the GI50 [27] of the same compound?
**A.** 31.6 µM and > 100 µM

**Q.** What about the TGI [27] of the same compound?
**A.** > 100 µM

**Q.** What about the GI50 [28] of the same compound?
**A.** 11 µM and 28.3 µM

**Q.** What about the TGI [28] of the same compound?
**A.** 32.7 µM and > 100 µM

**Q.** What about the TGI [29] of the same compound?
**A.** 29.4 µM and > 100 µM

**Q.** And the GI50 [30]?
**A.** 33.8 µM and > 100 µM

**Q.** And the TGI [30]?
**A.** > 100 µM

**Q.** And the GI50 [31]?
**A.** 24 µM and > 100 µM

**Q.** And the TGI [31]?
**A.** 58.8 µM and > 100 µM

**Q.** And the GI50 [32]?
**A.** 23.1 µM and 91.2 µM

**Q.** What about the TGI [32] of the same compound?
**A.** 78.5 µM and > 100 µM

**Q.** And the GI50 [33]?
**A.** 22.6 µM and > 100 µM

**Q.** And the TGI [33]?
**A.** > 100 µM

**Q.** And the GI50 [34]?
**A.** 24.2 µM and > 100 µM

**Q.** What about the TGI [34] of the same compound?
**A.** > 100 µM

**Q.** And the GI50 [35]?
**A.** 25.4 µM and > 100 µM

**Q.** And the TGI [35]?
**A.** > 100 µM

**Q.** What about the TGI [36] of the same compound?
**A.** > 100 µM

**Q.** And the GI50 [37]?
**A.** 18.6 µM and > 100 µM

**Q.** And the TGI [37]?
**A.** > 100 µM

**Q.** And the GI50 [38]?
**A.** 24 µM and > 100 µM

**Q.** And the TGI [38]?
**A.** 95.2 µM and > 100 µM

**Q.** What about the GI50 [39] of the same compound?
**A.** 14.6 µM and 69 µM

**Q.** And the TGI [39]?
**A.** 56 µM and > 100 µM

**Q.** And the GI50 [40]?
**A.** 17.3 µM and > 100 µM

**Q.** What about the TGI [40] of the same compound?
**A.** 69.9 µM and > 100 µM

**Q.** What about the TGI [41] of the same compound?
**A.** > 100 µM

**Q.** And the GI50 [42]?
**A.** 30.6 µM and 72.9 µM

**Q.** And the TGI [42]?
**A.** > 100 µM

**Q.** What about the GI50 [43] of the same compound?
**A.** 22.4 µM and > 100 µM

**Q.** What about the TGI [43] of the same compound?
**A.** 59.5 µM and > 100 µM

**Q.** What about the GI50 [44] of the same compound?
**A.** 20 µM and > 100 µM

**Q.** And the TGI [44]?
**A.** 92.1 µM and > 100 µM

**Q.** And the GI50 [45]?
**A.** 16.1 µM and > 100 µM

**Q.** What about the TGI [45] of the same compound?
**A.** 41.8 µM and > 100 µM

**Q.** What about the GI50 [46] of the same compound?
**A.** 22.6 µM and > 100 µM

**Q.** And the TGI [46]?
**A.** 66.4 µM and > 100 µM

**Q.** What about the TGI [47] of the same compound?
**A.** > 100 µM

**Q.** And the GI50 [48]?
**A.** 17.9 µM and > 100 µM

**Q.** And the TGI [48]?
**A.** 38 µM and > 100 µM

**Q.** What about the TGI [49] of the same compound?
**A.** > 100 µM

**Q.** And the GI50 [50]?
**A.** 12.6 µM and 27.8 µM

**Q.** What about the TGI [50] of the same compound?
**A.** 39.2 µM and > 100 µM

**Q.** What about the GI50 [51] of the same compound?
**A.** 22.8 µM and > 100 µM

**Q.** What about the TGI [51] of the same compound?
**A.** 75.7 µM and > 100 µM

**Q.** And the GI50 [52]?
**A.** 16.6 µM and > 100 µM

**Q.** What about the TGI [52] of the same compound?
**A.** 67.3 µM and > 100 µM

**Q.** And the GI50 [53]?
**A.** 27.7 µM and > 100 µM

**Q.** And the TGI [53]?
**A.** 88.5 µM and > 100 µM

**Q.** And the GI50 [54]?
**A.** 24.6 µM and > 100 µM

**Q.** What about the TGI [54] of the same compound?
**A.** 81.4 µM and > 100 µM

**Q.** And the GI50 [55]?
**A.** 34.2 µM and > 100 µM

**Q.** And the TGI [55]?
**A.** > 100 µM

**Q.** And the GI50 [56]?
**A.** 24.4 µM and > 100 µM

**Q.** And the TGI [56]?
**A.** > 100 µM

**Q.** What about the GI50 [57] of the same compound?
**A.** 20.8 µM and > 100 µM

**Q.** And the TGI [57]?
**A.** > 100 µM
